Laboratory results published in patent US9896697B2, “Defensin-encoding nucleic acid molecules derived from Nicotiana alata, uses therefor and transgenic plants comprising same” (HEXIMA LIMITED, priority 2001, dated 2018).

How the values were obtained:
[1] = system: Fusarium oxysporum (f. sp. vasinfectum, isolate VCG 01111); test: Fungal growth inhibition assay, 96-well microtitre plate, absorbance at 595 nm; assay type: cell-based; conditions: 20 μg/mL purified protein; FIGS. 12B and 12C
Description: (§1) The 96-well microtitre plate assay of Broekaert et al. (EMS Microbiology Letters 69:55-60, 1990) was used to test the effect of the purified NaPdf1 protein on the growth of Botrytis cinerea (isolated from rosemary, Brunswick, Victoria), Fusarium oxysporum (f. sp. dianthi, Race 2; isolated from carnation by Florigene Limited, Collingwood, Victoria) and Fusarium oxysporum (f. sp. vasinfectum, isolate VCG 01111 from cotton; provided by the Department of Primary Industries, Queensland). Fungal spores were isolated from sporulating cultures growing on half strength potato dextrose agar (PDA, Difco) or gamma-irradiated carnation leaves in water agar by the addition of sterile water and the use of a spreader. The suspension was filtered through two layers of autoclaved muslin and the spore concentration in the filtrate determined using a haemocytometer. The spores were used directly or after storage in sterile 20% v/v glycerol solution at −20° C.
(§2) Antifungal assays were performed in 96-well flat-bottomed microtitre plates (Greiner) under aseptic conditions. The spore concentration was adjusted to about 2×10^4 spores/mL in PDB and 80 μL of this suspension was added to each well to which 20 μL of filter sterilised (0.22 μm syringe filter, Millipore) test protein (10, 50 or 100 μg/mL) or water was added. The purity and concentration of each protein was confirmed before use by RP-HPLC analysis. Sterile water and ovalbumin (Sigma) were added to other wells as negative controls, and a mixture of the antifungal proteins α- and β-purothionin (Sigma) was used as a positive control. The plates were shaken on an orbital shaker for a few seconds to mix the spores and the test proteins. The plates were allowed to stand for 30 min to allow the spores to sediment before the optical density of the plates were determined using a Spectra Max Pro 250 microplate reader (Molecular Devices) at 595 nm absorbance. […] An increase in absorbance relative to the initial reading was correlated with the growth of fungal hyphae and this was plotted against time. […]

[2] = system: Botrytis cinerea; test: as above; assay type: cell-based; conditions: 20 μg/mL purified protein; FIG. 11
Description: as §1, §2

[3] = system: Fusarium oxysporum (f. sp. dianthi, Race 2); test: as above; assay type: cell-based; conditions: 20 μg/mL purified protein; FIG. 12A
Description: as §1, §2

[4] = system: H. armigera larvae; test: Insect feeding trial with artificial cotton leaf diet; assay type: in vivo; conditions: 0.3% (w/v) test protein in artificial diet; casein control; FIG. 16
Description: Table 2 Artificial diet ingredients used in the feeding trial of H. armigera [table] Helicoverpa punctigera larvae came from a colony collected in Victoria, Australia and maintained in culture at La Trobe University, Melbourne and H. armigera were obtained from a colonies maintained at La Trobe University, Melbourne or the Australian Cotton Research Institute, at the Entomology Department of the Commonwealth Scientific and Industrial Research Organisation in Narrabri, NSW. To confirm that the insecticidal activity was due to the defensin and not to upregulation of other endogenous defense molecules, a feeding trial using artificial cotton leaf diet containing purified defensin from floral buds was performed. The 6 kDa cysteine rich proteinase inhibitors (NaPI) from N. alata (Atkinson et al., Plant Cell 5: 203-213, 1993) were used as positive control and casein was used as a negative control. Feeding trials were conducted as described in Heath et al. (J. Insect Physiology 43: 833-842, 1997 except that the artificial diet was based on cotton leaves (Table 2). Thirty milligram of defensin was purified from floral buds of N. alata and used in artificial diets at two concentrations. H. armigera larvae fed on defensin at 0.3% (w/v) were 40% smaller than controls (FIG. 16) while larvae fed on NaPI at the same concentration were about 60% smaller than controls.

In the case of “NaPdf1: Mature floral defensin (47 amino acids, ~5.3 kDa) from Nicotiana alata, purified from floral buds (RECKTESNTFPGICITKPPCRKACISEKFTDGHCSKILRRCLCTKPC; listed as Nicotiana alata)”, the “growth inhibition of F. oxysporum f. sp. vasinfectum” value [1] is reported as “effectiveness”, the “growth inhibition of B. cinerea” value [2] is reported as “effectiveness” and the “growth inhibition of F. oxysporum f. sp. dianthi” value [3] is reported as “effectiveness”. For the same substance, the “larvae smaller than controls (mean weight)” value [4] was 40%.
